≈ marks a conversion by molar mass, not a printed value.
How the values were obtained:
Assay type in all cases: cell-based
E. coli NIHJ JC-2 = assay: MIC against standard strains (Test Example 3); conditions: Escherichia coli, NIHJJC2; E. coli NIHJ JC-2 (Test Example 3); read-out: MIC
Experimental: (§1) By using each test strain cultured overnight at 37°C in a Muller-Hinton broth, there was prepared a bacterial solution with a bacterial cell population of 1 x 10^6 CFU/mi of the same bouillon. The bacterial solution was inoculated into the Muller-Hinton agar media each containing respectively one test agent and, after overnight incubation at 37°C, the minimum concentration that inhibited growth of the bacteria was determined and shown as MIC also in Table 1.
(§2) The minimum growth inhibitory concentration was determined for each of the 21 standard strains shown in Table 3, according to the same method as used in Test Example 1.
(§3) In the test, FMOX (flomoxef), CTM (cefotiam) and CEZ (cefazolin) were used as control agents.

K. pneumoniae IFO3317 = assay: MIC against standard strains (Test Example 3); conditions: Klebsiella pneumoniae; K. pneumoniae IFO3317 (Test Example 3); read-out: MIC
Experimental: as §1, §2, §3

A. calcoaceticos T59 = assay: MIC against standard strains (Test Example 3); conditions: A. calcoaceticos T59 (Test Example 3); read-out: MIC
Experimental: as §1, §2, §3

S. aureus 209p JC-1 = assay: MIC against standard strains (Test Example 3); conditions: Staphylococcus aureus; S. aureus 209p JC-1 (Test Example 3); read-out: MIC
Experimental: as §1, §2, §3

S. aureus Smith = assay: MIC against standard strains (Test Example 3); conditions: Staphylococcus aureus; S. aureus Smith (Test Example 3); read-out: MIC
Experimental: as §1, §2, §3

B. subtilis ATCC6633 = assay: MIC against standard strains (Test Example 3); conditions: Bacillus subtilis; B. subtilis ATCC6633 (Test Example 3); read-out: MIC
Experimental: as §1, §2, §3

C. freundii ATCC8090 = assay: MIC against standard strains (Test Example 3); conditions: Citrobacter freundii; C. freundii ATCC8090 (Test Example 3); read-out: MIC
Experimental: as §1, §2, §3

S. epidemidis IAM1296 = assay: MIC against standard strains (Test Example 3); conditions: S. epidemidis IAM1296 (Test Example 3); read-out: MIC
Experimental: as §1, §2, §3

E. coli CSH2 (RE45) = assay: MIC against standard strains (Test Example 3); conditions: Escherichia coli
Experimental: as §1, §2, §3

M. Morganii IFO3848 = assay: MIC against standard strains (Test Example 3); conditions: Morganella morganii; M. Morganii IFO3848 (Test Example 3); read-out: MIC
Experimental: as §1, §2, §3

K. pneumoniae No. 42 = assay: MIC against standard strains (Test Example 3); conditions: Klebsiella pneumoniae; K. pneumoniae No. 42 (Test Example 3); read-out: MIC
Experimental: as §1, §2, §3

P. vulugaris OX-19 = assay: MIC against standard strains (Test Example 3); conditions: P. vulugaris OX-19 (Test Example 3); read-out: MIC
Experimental: as §1, §2, §3

E. coli CSH2 (RK1) = assay: MIC against standard strains (Test Example 3); conditions: Escherichia coli
Experimental: as §1, §2, §3

A. faecalis ATCC3750 = assay: MIC against standard strains (Test Example 3); conditions: Alcaligenes faecalis; A. faecalis ATCC3750 (Test Example 3); read-out: MIC
Experimental: as §1, §2, §3

S. aureus 195 = assay: MIC against standard strains (Test Example 3); conditions: Staphylococcus aureus; S. aureus 195 (MRSA) (Test Example 3); read-out: MIC
Experimental: as §1, §2, §3

S. aureus 167 = assay: MIC against standard strains (Test Example 3); conditions: Staphylococcus aureus; S. aureus 167 (MRSA) (Test Example 3); read-out: MIC
Experimental: as §1, §2, §3

S. marcescens IAM1184 = assay: MIC against standard strains (Test Example 3); conditions: Serratia marcescens; S. marcescens IAM1184 (Test Example 3); read-out: MIC
Experimental: as §1, §2, §3

P. aeruginosa NCTC10490 = assay: MIC against standard strains (Test Example 3); conditions: Pseudomonas aeruginosa; P. aeruginosa NCTC10490 (Test Example 3); read-out: MIC
Experimental: as §1, §2, §3

M. luteus ATCC 9341 = assay: MIC against standard strains (Test Example 3); conditions: Micrococcus luteus, ATCC9341; M. luteus ATCC 9341 (Test Example 3); read-out: MIC
Experimental: as §1, §2, §3

E. cloacae ATCC13407 = assay: MIC against standard strains (Test Example 3); conditions: Enterobacter cloacae; E. cloacae ATCC13407 (Test Example 3); read-out: MIC
Experimental: as §1, §2, §3

P. mirabilis IFO3849 = assay: MIC against standard strains (Test Example 3); conditions: Proteus mirabilis; P. mirabilis IFO3849 (Test Example 3); read-out: MIC
Experimental: as §1, §2, §3

Proteus vulgalis OX-19 = assay: MIC against standard strains (Test Example 1); conditions: Muller-Hinton agar, 37°C overnight
Experimental: as §1
(§4) Staphylococcus aureus 167 and Staphylococcus aureus 195 used in the test were MRSA. CTM (cefotiam) and FMOX (flomoxef) were used as control agents.

[1] = system: Staphylococcus aureus 167; assay: MIC against standard strains (Test Example 1); conditions: Staphylococcus aureus 167 (MRSA); Muller-Hinton agar, 37°C overnight
Experimental: as §1, §4

[2] = system: Bacillus subtilis ATCC 6633; assay: MIC against standard strains (Test Example 1); conditions: ATCC6633, Muller-Hinton agar, 37°C overnight
Experimental: as §1, §4

[3] = system: Pseudomonas aeruginosa NCTC 10490; assay: MIC against standard strains (Test Example 1); conditions: NCTC10490, Muller-Hinton agar, 37°C overnight
Experimental: as §1, §4

[4] = system: Enterobacter cloacae ATCC 13407; assay: MIC against standard strains (Test Example 1); conditions: ATCC13407, Muller-Hinton agar, 37°C overnight
Experimental: as §1, §4

[5] = system: Staphylococcus aureus 209P JC-1; assay: MIC against standard strains (Test Example 1); conditions: Muller-Hinton agar, 37°C overnight
Experimental: as §1, §4

[6] = system: Escherichia coli CSH2 (RK1); assay: MIC against standard strains (Test Example 1)
Experimental: as §1, §4

[7] = system: Staphylococcus epidermidis IAM 1296; assay: MIC against standard strains (Test Example 1); conditions: IAM1296, Muller-Hinton agar, 37°C overnight
Experimental: as §1, §4

[8] = system: Serratia marcescens IAM 1184; assay: MIC against standard strains (Test Example 1); conditions: IAM1184, Muller-Hinton agar, 37°C overnight
Experimental: as §1, §4

[9] = system: Morganella morganii IFO 3848; assay: MIC against standard strains (Test Example 1); conditions: IFO3848, Muller-Hinton agar, 37°C overnight
Experimental: as §1, §4

[10] = system: Klebsiella pneumoniae IFO 3317; assay: MIC against standard strains (Test Example 1); conditions: IFO3317, Muller-Hinton agar, 37°C overnight
Experimental: as §1, §4

[11] = system: Micrococcus luteus ATCC 9341; assay: MIC against standard strains (Test Example 1); conditions: ATCC9341, Muller-Hinton agar, 37°C overnight
Experimental: as §1, §4

[12] = system: Psuedomonas aeruginosa IFO 3445; assay: MIC against standard strains (Test Example 1); conditions: Muller-Hinton agar, 37°C overnight
Experimental: as §1, §4

[13] = system: Proteus mirabilis IFO 3849; assay: MIC against standard strains (Test Example 1); conditions: IFO3849, Muller-Hinton agar, 37°C overnight
Experimental: as §1, §4

[14] = system: Escherichia coli CSH2 (RE45); assay: MIC against standard strains (Test Example 1)
Experimental: as §1, §4

[15] = system: Escherichia coli NIHJ JC-2; assay: MIC against standard strains (Test Example 1); conditions: NIHJJC2, Muller-Hinton agar, 37°C overnight
Experimental: as §1, §4

[16] = system: Citrobacter freundii ATCC 8090; assay: MIC against standard strains (Test Example 1); conditions: ATCC8090, Muller-Hinton agar, 37°C overnight
Experimental: as §1, §4

[17] = system: Staphylococcus aureus Smith; assay: MIC against standard strains (Test Example 1); conditions: Muller-Hinton agar, 37°C overnight
Experimental: as §1, §4

[18] = system: Staphylococcus aureus 195; assay: MIC against standard strains (Test Example 1); conditions: Staphylococcus aureus 195 (MRSA); Muller-Hinton agar, 37°C overnight
Experimental: as §1, §4

[19] = system: Klebsiella pneumoniae No. 42; assay: MIC against standard strains (Test Example 1); conditions: Muller-Hinton agar, 37°C overnight
Experimental: as §1, §4

CN(C)CCn1nnnc1SCC1=C(C(=O)O)N2C(=O)[C@@H](NC(=O)Cc3csc(N)n3)[C@H]2SC1 [CTM, cefotiam, reference compound]
MIC (E. coli NIHJ JC-2): 0.1 µg/mL (≈ 0.19 µM) | MIC (K. pneumoniae IFO3317): 0.05 µg/mL (≈ 0.0951 µM) | MIC (A. calcoaceticos T59): 100 µg/mL (≈ 190 µM) | MIC (S. aureus 209p JC-1): 0.39 µg/mL (≈ 0.742 µM) | MIC (S. aureus Smith): 0.39 µg/mL (≈ 0.742 µM) | MIC (B. subtilis ATCC6633): 0.2 µg/mL (≈ 0.38 µM) | MIC (C. freundii ATCC8090): 0.78 µg/mL (≈ 1.48 µM) | MIC (S. epidemidis IAM1296): 0.2 µg/mL (≈ 0.38 µM) | MIC (E. coli CSH2 (RE45)): 0.1 µg/mL (≈ 0.19 µM) | MIC (M. Morganii IFO3848): 0.1 µg/mL (≈ 0.19 µM) | MIC (K. pneumoniae No. 42): 0.39 µg/mL (≈ 0.742 µM) | MIC (P. vulugaris OX-19): 0.39 µg/mL (≈ 0.742 µM) | MIC (E. coli CSH2 (RK1)): 0.1 µg/mL (≈ 0.19 µM) | MIC (A. faecalis ATCC3750): 1.56 µg/mL (≈ 2.97 µM) | MIC (S. aureus 195): > 100 µg/mL | MIC (S. aureus 167): 100 µg/mL (≈ 190 µM) | MIC (S. marcescens IAM1184): 1.56 µg/mL (≈ 2.97 µM) | MIC (P. aeruginosa NCTC10490): > 100 µg/mL | MIC (M. luteus ATCC 9341): 0.39 µg/mL (≈ 0.742 µM) | MIC (E. cloacae ATCC13407): 3.13 µg/mL (≈ 5.95 µM) | MIC (P. mirabilis IFO3849): 0.39 µg/mL (≈ 0.742 µM) | MIC (Proteus vulgalis OX-19): 0.39 µg/mL (≈ 0.742 µM) | MIC [1]: > 100 µg/mL | MIC [2]: 0.2 µg/mL (≈ 0.38 µM) | MIC [3]: > 100 µg/mL | MIC [4]: 50 µg/mL (≈ 95.1 µM) | MIC [5]: 0.2 µg/mL (≈ 0.38 µM) | MIC [6]: 0.2 µg/mL (≈ 0.38 µM) | MIC [7]: 0.2 µg/mL (≈ 0.38 µM) | MIC [8]: 3.13 µg/mL (≈ 5.95 µM) | MIC [9]: 0.1 µg/mL (≈ 0.19 µM) | MIC [10]: 0.1 µg/mL (≈ 0.19 µM) | MIC [11]: 0.39 µg/mL (≈ 0.742 µM) | MIC [12]: > 100 µg/mL | MIC [13]: 0.39 µg/mL (≈ 0.742 µM) | MIC [14]: 0.2 µg/mL (≈ 0.38 µM) | MIC [15]: 0.1 µg/mL (≈ 0.19 µM) | MIC [16]: 0.78 µg/mL (≈ 1.48 µM) | MIC [17]: 0.39 µg/mL (≈ 0.742 µM) | MIC [18]: > 100 µg/mL | MIC [19]: 0.39 µg/mL (≈ 0.742 µM)
